Source: patent US10888720B2, “Gentiopicroside free gentiana extract” (DSM IP ASSETS B.V., priority 2015, dated 2021)

How the values were obtained:
DNA = settings: K. Mustafayeva et al., J. Nat. Prod. 2010, 73, 99-103; cited from earlier work
[1] = system: Normal human fibroblasts (NHF); test: Hyaluronan production (Hyaluronan Assay Kit); assay type: cell-based; settings: TGFbeta1 10 ng/ml, positive control
Experimental: Gentiana extract (Gentiana acaulis/Gentiana septemfida, 25/75 m/m) was used. Normal human fibroblasts (NHF) P2+1 were seeded at 5000 cell/well in 96 well cell culture plates (Nunclon) in MEM 10% FCS (Pan Biotech). After three days of growth, Gentiana extract solution was added in medium without FCS and incubated the cells for an additional three days. Secreted hyaluronan in the growth medium was measured using a Hyaluronan Assay Kit (K-1200, Echelon, Salt Lake City, Utah).

Compound	genotoxic effects reported (DNA)	stimulation of hyaluronan production compared to untreated cells [1] [%]
C=C[C@@H]1C2=CCOC(=O)C2=CO[C@H]1O[C@@H]1O[C@H](CO)[C@@H](O)[C@H](O)[C@H]1O [gentiopicroside]	DNA damaging, mutagenic, and clastogenic effects	
TGFbeta1: TGFbeta1 (10 ng/ml), served as positive control for hyaluronan production		45.6±1.1
